Our source for the EC50 values is patent US8809376B2, “Indanyloxydihydrobenzofuranylacetic acids” (Boehringer Ingelheim International GmbH, priority 2012, dated 2014).

As a reminder, the EC50 is the concentration giving half of the maximal effect. Lower therefore signals higher potency in that assay.

The target in this experiment is human GPR40 receptor (Homo sapiens, UniProt O14842). Nature of the experiment: Assay I: IP1 accumulation (IPOne assay system) in 1321N1 cells stably expressing human GPR40 receptor. It counts as cell-based. The following applies: stimulated 1 hour at 37° C., 10% CO2, LiCl 50 mM. The method, then: IP1 accumulation measurements using the IPOne assay system—1321N1 cells stably expressing human GPR40 receptor (Euroscreen, Belgium) are seeded 24 h before the assay in black clear-bottom collagen-coated 384-well plates in culture medium containing 10% FCS, 1% Na-Pyruvate and 400 μg/mL G418. IP1 is assayed according to the Manufacturer's description (Cisbio Bioassays, France). In brief, the assay is started by substitution of the culture medium by stimulation buffer (Hepes 10 mM, CaCl2 1 mM, MgCl2 0.5 mM, KCl 4.2 mM, NaCl 146 mM and glucose 5.5 mM, pH 7.4) without LiCl. Cells are stimulated for 1 hour at 37° C., 10% CO2 by addition of the compounds that are diluted in stimulation buffer containing LiCl yielding a final LiCl concentration of 50 mM. Assays are stopped by adding HTRF-conjugates (IP1-d2 and Anti-IP1 cryptate Tb) and lysis buffer, provided by the manufacturer. After an incubation time of 1 hour at room temperature plates are measured using an EnVision™, Perkin Elmer. The obtained fluorescence ratios at 665/615 nM are then used to calculate the pEC50 values using GraphPad Prism 5 (Graphpad Software Inc, USA) by interpolation using an IP1 reference curve and subsequent sigmoidal curve fitting allowing for a variable hill slope.
Sequence of human GPR40 receptor (O14842 whole entry): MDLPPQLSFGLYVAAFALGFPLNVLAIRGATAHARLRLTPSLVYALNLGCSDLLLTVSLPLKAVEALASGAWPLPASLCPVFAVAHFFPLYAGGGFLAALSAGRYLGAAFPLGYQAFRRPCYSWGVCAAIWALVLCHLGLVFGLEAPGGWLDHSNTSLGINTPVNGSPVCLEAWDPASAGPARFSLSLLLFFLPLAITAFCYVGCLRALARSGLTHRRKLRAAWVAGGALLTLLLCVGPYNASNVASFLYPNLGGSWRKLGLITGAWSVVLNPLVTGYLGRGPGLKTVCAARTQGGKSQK
In turn, `O=C(O)C[C@@H]1COc2cc(O[C@@H]3CCc4c(Cc5ccccc5)ccc(F)c43)ccc21` [Example 16, {(S)-6-[(R)-4-Benzyl-7-fluoro-indan-1-yloxy]-2,3-dihydrobenzofuran-3-yl}-acetic acid] returned a 50% effective concentration (EC50) of 0.005 µM. This counts as single-digit nanomolar.

In turn, `O=C(O)C[C@@H]1COc2cc(O[C@@H]3CCc4c3ccc(C(F)(F)F)c4Cc3ccccc3)ccc21` [Example 10, {(S)-6-[(R)-4-Benzyl-5-trifluoromethyl-indan-1-yloxy]-2,3-dihydro-benzofuran-3-yl}-acetic acid] showed a 50% effective concentration (EC50) of 0.003 µM.

`COc1cccc(Cc2ccc(F)c3c2CC[C@H]3Oc2ccc3c(c2)OC[C@H]3CC(=O)O)c1` [Example 14, {(S)-6-[(R)-7-Fluoro-4-(3-methoxybenzyl)-indan-1-yloxy]-2,3-dihydrobenzofuran-3-yl}-acetic acid] showed an EC50 of 0.004 µM.

Turning to `C[S+]([O-])c1ccc(Cc2c(C#N)ccc3c2CC[C@H]3Oc2ccc3c(c2)OC[C@H]3CC(=O)O)cc1` (stereo partly drawn) [Example 12, {(S)-6-[(R)-5-Cyano-4-(4-methylsulfinyl-benzyl)-indan-1-yloxy]-2,3-dihydro-benzofuran-3-yl}-acetic acid], it took 0.479 µM to reach a half-maximal effect (EC50).

`COc1ccc(Cc2ccc(F)c3c2CC[C@H]3Oc2ccc3c(c2)OC[C@H]3CC(=O)O)cc1` [Example 13, {(S)-6-[(R)-7-Fluoro-4-(4-methoxybenzyl)-indan-1-yloxy]-2,3-dihydrobenzofuran-3-yl}acetic acid] came in with an EC50 of 0.005 µM.

As to `N#Cc1cccc(Cc2c(C#N)ccc3c2CC[C@H]3Oc2ccc3c(c2)OC[C@H]3CC(=O)O)c1` [Example 9, {(S)-6-[(R)-5-Cyano-4-(3-cyano-benzyl)-indan-1-yloxy]-2,3-dihydro-benzofuran-3-yl}-acetic acid], the half-maximal effective concentration (EC50) amounted to 0.029 µM.

`N#Cc1ccc2c(c1Cc1ccc(Cl)nc1)CC[C@H]2Oc1ccc2c(c1)OC[C@H]2CC(=O)O` [Example 2, {(S)-6-[(R)-4-(6-Chloro-pyridin-3-ylmethyl)-5-cyano-indan-1-yloxy]-2,3-dihydro-benzofuran-3-yl}-acetic acid]: a half-maximal effect (EC50) was put at 0.036 µM.

On to `COc1cccc(Cc2c(C#N)ccc3c2CC[C@H]3Oc2ccc3c(c2)OC[C@H]3CC(=O)O)c1` [Example 3, {(S)-6-[(R)-5-Cyano-4-(3-methoxy-benzyl)-indan-1-yloxy]-2,3-dihydro-benzofuran-3-yl}-acetic acid], for which the half-maximal effective concentration (EC50) stood at 0.024 µM.

`O=C(O)C[C@@H]1COc2cc(O[C@@H]3CCc4c(Cc5ccc(Cl)nc5)ccc(F)c43)ccc21` [Example 15]: the EC50 was 0.035 µM.

Regarding `N#Cc1ccc2c(c1Cc1ccc(O)cc1)CC[C@H]2Oc1ccc2c(c1)OC[C@H]2CC(=O)O` [Example 11, {(S)-6-[(R)-5-Cyano-4-(4-hydroxy-benzyl)-indan-1-yloxy]-2,3-dihydro-benzofuran-3-yl}-acetic acid], the concentration giving a half-maximal response (EC50) came out at 0.012 µM.

`Cc1cccc(C)c1Cc1c(C#N)ccc2c1CC[C@H]2Oc1ccc2c(c1)OC[C@H]2CC(=O)O` [Example 5, {(S)-6-[(R)-5-Cyano-4-(2,6-dimethyl-benzyl)-indan-1-yloxy]-2,3-dihydro-benzofuran-3-yl}-acetic acid] had an EC50 of 0.006 µM.

Turning to `CS(=O)(=O)c1ccc(Cc2c(C#N)ccc3c2CC[C@H]3Oc2ccc3c(c2)OC[C@H]3CC(=O)O)cc1` [Example 8, {(S)-6-[(R)-5-Cyano-4-(4-methylsulfonyl-benzyl)-indan-1-yloxy]-2,3-dihydro-benzofuran-3-yl}-acetic acid], the concentration for a half-maximal effect (EC50) is 0.325 µM.
